pIC50: −log10 of the molar value. Activity calls are given as the source filed them. No cut-off for these calls is given here.
Key:
[1] = molecular target: T1, Tyrosinase (Agaricus bisporus) (UniProt O42713); assay: Inhibition of diphenolase activity of mushroom tyrosinase using L-DOPA as substrate assessed as formation of the DOPA chrome at 100 uM preincubated for 10 mins followed by substrate addition measured for 1 min by spectrophotometric analysis relative to control
T1 sequence (whole entry): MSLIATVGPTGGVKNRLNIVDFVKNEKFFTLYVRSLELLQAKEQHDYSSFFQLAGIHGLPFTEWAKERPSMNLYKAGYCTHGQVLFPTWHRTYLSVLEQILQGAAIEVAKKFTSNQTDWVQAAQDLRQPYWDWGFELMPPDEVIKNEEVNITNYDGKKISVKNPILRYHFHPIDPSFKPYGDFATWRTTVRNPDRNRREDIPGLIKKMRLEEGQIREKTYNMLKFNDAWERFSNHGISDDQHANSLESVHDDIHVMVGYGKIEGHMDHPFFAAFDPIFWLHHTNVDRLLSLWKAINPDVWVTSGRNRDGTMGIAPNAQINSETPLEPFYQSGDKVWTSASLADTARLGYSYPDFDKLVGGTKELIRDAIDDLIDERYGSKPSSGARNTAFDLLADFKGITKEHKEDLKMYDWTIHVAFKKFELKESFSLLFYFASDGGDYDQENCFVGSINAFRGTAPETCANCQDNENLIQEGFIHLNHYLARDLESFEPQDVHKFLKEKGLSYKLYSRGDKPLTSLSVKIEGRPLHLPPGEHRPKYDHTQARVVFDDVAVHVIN

[2] = molecular target: T1, Tyrosinase (Agaricus bisporus); assay: Reversible inhibition of diphenolase activity of mushroom tyrosinase assessed as L-DOPA oxidation at 10 to 50 uM
[3] = molecular target: T1, Tyrosinase (Agaricus bisporus); assay: Competitive inhibition of diphenolase activity of mushroom tyrosinase assessed as L-DOPA oxidation at 15 to 45 uM by Lineweaver-Burk plot analysis
[4] = molecular target: T2, Tyrosinase (Agaricus bisporus, UniProt O42713)
T2 sequence (O42713 whole entry): T1 sequence (whole entry)
Description: Inhibition of diphenolase activity of mushroom tyrosinase using L-DOPA as substrate assessed as formation of the DOPA chrome preincubated for 10 mins followed by substrate addition measured for 1 min by spectrophotometric analysis

[5] = Drug degradation at 20 degC measured for 15 days; assay type: physicochemical; settings: read-out: Drug degradation
[6] = organism: Mus musculus; assay: animal or person; settings: Kunming, Ear, po, read-out: INH
Description: Antiinflammatory activity in Kunming mouse assessed as inhibition of croton oil-induced ear swelling at 0.105 mmol/kg, ig administered for 3 days followed by croton oil challenge at 1 hrs post last dose measured after 4 hrs relative to control

[7] = molecular target: T1, Tyrosinase (Agaricus bisporus); assay: […] inhibition of diphenolase activity of mushroom tyrosinase assessed as L-DOPA oxidation at 10 to 50 uM

SMILES	inhibition [1]	pIC50 [4]	also measured
CCCCOc1cccc2c1C(=O)c1c(OCCCC)cc(CO)cc1C2=O	73.6%	4.48	inhibition [2]: Active; inhibition [3]: Active
CO/N=C/c1cc(O)c2c(c1)C(=O)c1cccc(O)c1C2=O	12.9%	< 3.70	
CO/N=C/c1cc(OC)c2c(c1)C(=O)c1cccc(OC)c1C2=O	inactive		
CCOCOc1cccc2c1C(=O)c1c(OCOCC)cc(CO)cc1C2=O	7.45%	< 3.70	
C=CCOc1cccc2c1C(=O)c1c(OCC=C)cc(C=O)cc1C2=O	55.4%	4.03	
OC[C@H]1O[C@@H](Oc2ccc(O)cc2)[C@H](O)[C@@H](O)[C@@H]1O [ARBUTIN]			degraded at 360 h [5]: 10%
CCO/N=C/c1cc(O)c2c(c1)C(=O)c1cccc(O)c1C2=O	18.3%	< 3.70	
C=CCOc1cccc2c1C(=O)c1c(OCC=C)cc(/C=N/OC)cc1C2=O	inactive		
O=C1c2cccc(O)c2C(=O)c2c(O)cc(/C=N/OCc3ccccc3)cc21	inactive		
COc1cccc2c1C(=O)c1c(OC)cc(CO)cc1C2=O	9.86%	< 3.70	inhibition in vivo at 105 µmol/kg [6]: 35.2%
C=CCOc1cccc2c1C(=O)c1c(OCC=C)cc(CO)cc1C2=O	58.6%	4.04	
COc1cccc2c1C(=O)c1c(OC)cc(/C=N/NC(N)=S)cc1C2=O	76.4%	4.55	
CCO/N=C/c1cc(OC)c2c(c1)C(=O)c1cccc(OC)c1C2=O	inactive		
C=CCOc1cccc2c1C(=O)c1c(OCC=C)cc(/C=N/OCC)cc1C2=O	inactive		
CCOCOc1cccc2c1C(=O)c1c(OCOCC)cc(C=O)cc1C2=O	inactive		
O=Cc1cc(O)c2c(c1)C(=O)c1cccc(O)c1C2=O	49.4%	3.96	inhibition in vivo at 105 µmol/kg [6]: 50.6%
NC(=S)N/N=C/c1cc(O)c2c(c1)C(=O)c1cccc(O)c1C2=O	78.6%	4.61	inhibition [7]: Active
C=CCOc1cccc2c1C(=O)c1c(OCC=C)cc(/C=N/O)cc1C2=O	57%	4.08	
COc1cccc2c1C(=O)c1c(OC)cc(C=O)cc1C2=O	inactive		inhibition in vivo at 105 µmol/kg [6]: 42.6%
CCOCOc1cccc2c1C(=O)c1c(OCOCC)cc(/C=N/NC(N)=S)cc1C2=O	65.3%	4.24	
CC(=O)Oc1cccc2c1C(=O)c1c(OC(C)=O)cc(C(=O)O)cc1C2=O [DIACEREIN]			inhibition in vivo at 105 µmol/kg [6]: 39.1%
O=C1c2cccc(O)c2C(=O)c2c(O)cc(/C=N/O)cc21	inactive		

Source: ChEMBL document CHEMBL3632534, “Design and synthesis of aloe-emodin derivatives as potent anti-tyrosinase, antibacterial and anti-inflammatory agents” (Bioorg Med Chem Lett, 2015)
